Read-outs that look alike come from different tables or passages of the source.
Details: rcm bond, Grubbs I, CH2Cl2, 40.0 °C

SMILES	ring closure, yield of all isomers (from C=CCCCCN(C[C@@H](O)[C@H](Cc1ccccc1)NC(=O)OC(C)(C)C)S(=O)(=O)c1ccc(OC)cc1COCC=C, 2.65 mM, 4.0 h)	ring closure, yield of all isomers (from C=CCCCCN(C[C@@H](O)[C@H](Cc1ccccc1)NC(=O)OC(C)(C)C)S(=O)(=O)c1ccc([N+](=O)[O-])cc1COCC=C, 1.625 mM, 3.0 h)
COc1ccc2c(c1)COCC=CCCCCN(C[C@@H](O)[C@H](Cc1ccccc1)NC(=O)OC(C)(C)C)S2(=O)=O	93%	
CC(C)(C)OC(=O)N[C@@H](Cc1ccccc1)[C@H](O)CN1CCCCC=CCOCc2cc([N+](=O)[O-])ccc2S1(=O)=O		92%

Source: US11230550
